# Laboratory results as given in patent US20240140957A1, “BRIDGED COMPOUNDS AS KRAS G12D INHIBITOR AND DEGRADER AND THE USE THEREOF” (BeiGene Switzerland GmbH, priority 2021, published 2024).
# Molecular target: GDP-loaded KRAS G12D (Homo sapiens, UniProt P01116, G12D)
# Assay: KRAS G12D Probe Displacement Assay
# Format: binding
# Settings: KRAS G12D 0.5 nM, biotinylated probe 2 4 nM; Table 6 letters; read-out: KRAS G12D Probe Displacement Assay IC50 (class)
# GDP-loaded KRAS G12D, sequence (P01116 1-188 isoform P01116-2 G12D): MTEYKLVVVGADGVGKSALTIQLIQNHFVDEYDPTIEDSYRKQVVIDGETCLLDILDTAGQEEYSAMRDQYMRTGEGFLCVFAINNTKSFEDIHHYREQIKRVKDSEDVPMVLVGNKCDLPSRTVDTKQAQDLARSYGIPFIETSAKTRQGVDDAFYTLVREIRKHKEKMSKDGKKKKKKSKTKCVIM
row,SMILES,IC50
1,"Cc1cc(N)nc(-c2c(C3CC3)cc3c(N4CC5CCC(C4)N5)nc(OC[C@@]45CCCN4C[C@H](F)C5)nc3c2F)c1C(F)(F)F [Example E129, 6-(4-(3,8-diazabicyclo[3.2.1]octan-3-yl)-6-cyclopropyl-8-fluoro-2-(((2R,7aS)-2-fluorotetrahydro-1H-pyrrolizin-7a(5H)-yl)methoxy)quinazolin-7-yl)-4-methyl-5-(trifluoromethyl)pyridin-2-amine]",< 50 nM
2,"CC(F)(F)c1c(Cl)cc(N)nc1-c1c(Cl)cc2c(N3CC4CCC(C3)N4)nc(OC[C@@]34CCCN3C[C@H](F)C4)nc2c1F [Example E130, 6-(4-(3,8-diazabicyclo[3.2.1]octan-3-yl)-6-chloro-8-fluoro-2-(((2R,7aS)-2-fluorotetrahydro-1H-pyrrolizin-7a(5H)-yl)methoxy)quinazolin-7-yl)-4-chloro-5-(1,1-difluoroethyl)pyridin-2-amine]",< 50 nM
3,"COCC1CCC2(COc3nc(N4CC5CCC(C4)N5)c4cc(C(F)(F)F)c(-c5ccc(F)c6sc(N)nc56)c(F)c4n3)CCCN12 (stereo not drawn) [Example E131, 4-(4-(3,8-diazabicyclo[3.2.1]octan-3-yl)-8-fluoro-2-((3-(methoxymethyl)tetrahydro-1H-pyrrolizin-7a(5H)-yl)methoxy)-6-(trifluoromethyl)quinazolin-7-yl)-7-fluorobenzo[d]thiazol-2-amine]",< 50 nM
4,"N#Cc1c(N)sc2c(F)ccc(-c3c(Cl)cc4c(N5CC6CCC(C5)N6)nc(OCC5(CN6CCC(F)C6)CCC5)nc4c3F)c12 (stereo not drawn) [Example E132, 4-(4-(3,8-diazabicyclo[3.2.1]octan-3-yl)-6-chloro-8-fluoro-2-((1-((3-fluoropyrrolidin-1-yl)methyl)cyclobutyl)methoxy)quinazolin-7-yl)-2-amino-7-fluorobenzo [b]thiophene-3-carbonitrile]",< 50 nM
5,"Cc1cc(N)nc(-c2c(Cl)cc3c(N4CC5CCC(C4)N5)nc(OCC45CCCN4C(CF)CC5)nc3c2F)c1C(F)(F)F (stereo not drawn) [Example E133, 6-(4-(3,8-diazabicyclo[3.2.1]octan-3-yl)-6-chloro-8-fluoro-2-((3-(fluoromethyl)tetrahydro-1H-pyrrolizin-7a(5H)-yl)methoxy)quinazolin-7-yl)-4-methyl-5-(trifluoromethyl)pyridin-2-amine]",< 50 nM
6,"COCC1CC2(COc3nc(N4CC5CCC(C4)N5)c4cc(C(F)(F)F)c(-c5ccc(F)c6sc(N)nc56)c(F)c4n3)CC(F)CN12 (stereo not drawn) [Example E134, 4-(4-(3,8-diazabicyclo[3.2.1]octan-3-yl)-8-fluoro-2-((3-fluoro-7-(methoxymethyl)-1-azabicyclo[3.2.0]heptan-5-yl)methoxy)-6-(trifluoromethyl)quinazolin-7-yl)-7-fluorobenzo[d]thiazol-2-amine]",< 50 nM
7,"Cn1nc(N)c(-c2cc3nc(OC[C@@]45CCCN4C[C@H](F)C5)nc(N4CC5CCC(C4)N5)c3cc2Cl)c1C1CC1 [Example E135, 4-(4-(3,8-diazabicyclo[3.2.1]octan-3-yl)-6-chloro-2-(((2R,7aS)-2-fluorotetrahydro-1H-pyrrolizin-7a(5H)-yl)methoxy)quinazolin-7-yl)-5-cyclopropyl-1-methyl-1H-pyrazol-3-amine]",> 1000 nM
8,"F[C@H]1CN2CCC[C@@]2(COc2nc(N3CC4CCC(C3)N4)c3cc(Cl)c(-n4ncc5cccc(Cl)c54)cc3n2)C1 [Example E136, 4-(3,8-diazabicyclo[3.2.1]octan-3-yl)-6-chloro-7-(7-chloro-1H-indazol-1-yl)-2-(((2R,7aS)-2-fluorotetrahydro-1H-pyrrolizin-7a(5H)-yl)methoxy)quinazoline]",> 1000 nM
9,"COC[C@@]1(COc2nc(N3C4CNCC3COC4)c3cc(F)c(-c4nc(N)cc(C)c4C(F)(F)F)c(F)c3n2)C[C@@H](F)CN1C [Example E137, 6-(4-(3-oxa-7,9-diazabicyclo[3.3.1]nonan-9-yl)-6,8-difluoro-2-(((2R,4R)-4-fluoro-2-(methoxymethyl)-1-methylpyrrolidin-2-yl)methoxy)quinazolin-7-yl)-4-methyl-5-(trifluoromethyl)pyridin-2-amine]",100 to 1000 nM
10,"COC1CN2CC(F)CC2(COc2nc(N3C4CNCC3COC4)c3cc(F)c(-c4nc(N)cc(C)c4C(F)(F)F)c(F)c3n2)C1 (stereo not drawn) [Example E138, 6-(4-(3-oxa-7,9-diazabicyclo[3.3.1]nonan-9-yl)-6,8-difluoro-2-((2-fluoro-6-methoxytetrahydro-1H-pyrrolizin-7a(5H)-yl)methoxy)quinazolin-7-yl)-4-methyl-5-(trifluoromethyl)pyridin-2-amine]",100 to 1000 nM
11,"Nc1nc2c(-c3c(C(F)(F)F)cc4c(N5C6CNCC5COC6)nc(OCC56CC(F)CN5CC(F)C6)nc4c3F)ccc(F)c2s1 (stereo not drawn) [Example E139, 4-(4-(3-oxa-7,9-diazabicyclo[3.3.1]nonan-9-yl)-2-((2,6-difluorotetrahydro-1H-pyrrolizin-7a(5H)-yl)methoxy)-8-fluoro-6-(trifluoromethyl)quinazolin-7-yl)-7-fluorobenzo[d]thiazol-2-amine]",< 50 nM
12,"Nc1nc2c(-c3c(Cl)cc4c(N5CC6CCC(C5)N6)nc(OC[C@@]56CCCN5C[C@H](F)C6)nc4c3F)cc(Cl)cc2s1 [Example E140, 4-(4-(3,8-diazabicyclo[3.2.1]octan-3-yl)-6-chloro-8-fluoro-2-(((2R,7aS)-2-fluorotetrahydro-1H-pyrrolizin-7a(5H)-yl)methoxy)quinazolin-7-yl)-6-chlorobenzo [d]thiazol-2-amine]",< 50 nM
13,"Nc1nc2c(-c3c(C(F)(F)F)cc4c(N5CC6CCC(C5)N6)nc(OCC(O)CO)nc4c3F)ccc(F)c2s1 (stereo not drawn) [Example E141, 3-((7-(2-amino-7-fluorobenzo[d]thiazol-4-yl)-4-(3,8-diazabicyclo [3.2.1]octan-3-yl)-8-fluoro-6-(trifluoromethyl)quinazolin-2-yl)oxy)propane-1,2-diol]",< 50 nM
14,"CC(CO)COc1nc(N2CC3CCC(C2)N3)c2cc(C(F)(F)F)c(-c3ccc(F)c4sc(N)nc34)c(F)c2n1 (stereo not drawn) [Example E142, 3-((7-(2-amino-7-fluorobenzo[d]thiazol-4-yl)-4-(3,8-diazabicyclo [3.2.1]octan-3-yl)-8-fluoro-6-(trifluoromethyl)quinazolin-2-yl)oxy)-2-methylpropan-1-ol]",< 50 nM

# More lines, now with the values ahead:
row,IC50,SMILES
1,< 50 nM,Nc1nc2c(-c3c(C(F)(F)F)cc4c(N5CC6CCC(C5)N6)nc(OC5CCOC5)nc4c3F)ccc(F)c2s1 (stereo not drawn) [Example E143]
2,< 50 nM,"Nc1nc2c(-c3c(C(F)(F)F)cc4c(N5CC6CCC(C5)N6)nc(OCC5CCOCC5)nc4c3F)ccc(F)c2s1 [Example E144, 4-(4-(3,8-diazabicyclo[3.2.1]octan-3-yl)-8-fluoro-2-((tetrahydro-2H-pyran-4-yl)methoxy)-6-(trifluoromethyl)quinazolin-7-yl)-7-fluorobenzo[d]thiazol-2-amine]"
3,< 50 nM,"Nc1nc2c(-c3c(C(F)(F)F)cc4c(N5CC6CCC(C5)N6)nc(OCC5CCOC5)nc4c3F)ccc(F)c2s1 (stereo not drawn) [Example E145, 4-(4-(3,8-diazabicyclo[3.2.1]octan-3-yl)-8-fluoro-2-((tetrahydrofuran-3-yl)methoxy)-6-(trifluoromethyl)quinazolin-7-yl)-7-fluorobenzo [d]thiazol-2-amine]"
4,< 50 nM,"Nc1nc2c(-c3c(C(F)(F)F)cc4c(N5CC6CCC(C5)N6)nc(OCC5CCCCO5)nc4c3F)ccc(F)c2s1 (stereo not drawn) [Example E146, 4-(4-(3,8-diazabicyclo[3.2.1]octan-3-yl)-8-fluoro-2-((tetrahydro-2H-pyran-2-yl)methoxy)-6-(trifluoromethyl)quinazolin-7-yl)-7-fluorobenzo[d]thiazol-2-amine]"
5,< 50 nM,"N#CC1(COc2nc(N3CC4CCC(C3)N4)c3cc(C(F)(F)F)c(-c4ccc(F)c5sc(N)nc45)c(F)c3n2)CC1 [Example E147, 1-(((7-(2-amino-7-fluorobenzo[d]thiazol-4-yl)-4-(3,8-diazabicyclo [3.2.1]octan-3-yl)-8-fluoro-6-(trifluoromethyl)quinazolin-2-yl)oxy)methyl)cyclopropane-1-carbonitrile]"
6,< 50 nM,"Nc1nc2c(-c3c(C(F)(F)F)cc4c(N5CC6CCC(C5)N6)nc(OC5CS(=O)(=O)C5)nc4c3F)ccc(F)c2s1 [Example E148, 3-((7-(2-amino-7-fluorobenzo[d]thiazol-4-yl)-4-(3,8-diazabicyclo [3.2.1]octan-3-yl)-8-fluoro-6-(trifluoromethyl)quinazolin-2-yl)oxy)thietane 1,1-dioxide]"
7,< 50 nM,"Nc1nc2c(-c3c(C(F)(F)F)cc4c(N5CC6CCC(C5)N6)nc(OCC5(CO)CC5)nc4c3F)ccc(F)c2s1 [Example E149, (1-(((7-(2-amino-7-fluorobenzo[d]thiazol-4-yl)-4-(3,8-diazabicyclo[3.2.1]octan-3-yl)-8-fluoro-6-(trifluoromethyl)quinazolin-2-yl)oxy)methyl)cyclopropyl) methanol]"
8,< 50 nM,"COC1CC(COc2nc(N3CC4CCC(C3)N4)c3cc(C(F)(F)F)c(-c4ccc(F)c5sc(N)nc45)c(F)c3n2)C1 (stereo not drawn) [Example E150, 4-(4-(3,8-diazabicyclo[3.2.1]octan-3-yl)-8-fluoro-2-((3-methoxycyclobutyl)methoxy)-6-(trifluoromethyl)quinazolin-7-yl)-7-fluorobenzo[d]thiazol-2-amine]"
9,< 50 nM,"N#CC1(F)CC(Oc2nc(N3CC4CCC(C3)N4)c3cc(C(F)(F)F)c(-c4ccc(F)c5sc(N)nc45)c(F)c3n2)C1 (stereo not drawn) [Example E151, 3-((7-(2-amino-7-fluorobenzo[d]thiazol-4-yl)-4-(3,8-diazabicyclo[3.2.1]octan-3-yl)-8-fluoro-6-(trifluoromethyl)quinazolin-2-yl)oxy)-1-fluorocyclo butane-1-carbonitrile]"
10,< 50 nM,"Nc1nc2c(-c3c(C(F)(F)F)cc4c(N5CC6CCC(C5)N6)nc(OCC56COC(C5)C6)nc4c3F)ccc(F)c2s1 [Example E152, 4-(2-((2-oxabicyclo[2.1.1]hexan-4-yl)methoxy)-4-(3,8-diazabicyclo[3.2.1]octan-3-yl)-8-fluoro-6-(trifluoromethyl)quinazolin-7-yl)-7-fluorobenzo[d] thiazol-2-amine]"
